We go through nine compounds from patent US20240366639A1, “HETEROCYCLIC GLP-1 AGONISTS” (GASHERBRUM BIO, INC., priority 2021, published 2024).

This experiment concerns the target T1, GLP-1 Receptor (GLP1R) (Homo sapiens, UniProt P43220).
T1 construct: host or cells: HEK293/GLP1R/CRE-LUC
The experiment is described as follows: GLP-1R agonist cAMP stimulation assay (Method 3). It is filed as cell-based. The following applies: HEK293/GLP1R/CRE-LUC cells (HDB), Method 3, 30 min incubation. On the procedure:
Method 3: Activation of GLP-1 receptor is known to stimulate cyclic AMP (cAMP) production in cells which indicates primary coupling to the Gαs subunit of the G protein heterotrimeric complex.
To optimize functional activity directed toward Gαs coupling, a HEK293/CRE-Luc cell line developed by HDB stably expressing the GLP-1 Receptor was used, 200× concentration of compound working solutions were prepared (Agilent Technologies Bravo) with 1/2 log serial dilution in 384-well Echo LDV plate (Labcyte, Cat #LP-0200). 50 nL/well 200× concentration of compound working solutions were moved to 384-well white low volume plate (Greiner, Cat #784075) using Labcyte ECHO550. 1×10^5 cells/mL HEK293/GLP1R/CRE-LUC(HD Biosciences) cell suspensions prepared with assay buffer [DPBS containing 0.5 mM IBMX (Sigma, Cat #15879) and 0.1% BSA (GENVIEW, Cat #FA016-100 g)], 10 μL cell suspensions were added to each well of previous generated assay plate which already contains 50 nL compound at 200× concentration using ThermoFisher Multidrop Combi (1000 cells/well). Seal the plate and incubate at 37° C. with 5% CO2 for 30 min.
After incubation the cAMP assay signal was generated using cAMP dynamic 2 Kit (Cisbio). 5 μL cAMP-d2 working solution was added to each well, followed with 5 μL Anti-cAMP antibody-cryptate working solution added to each well using ThermoFisher Multidrop Combi. Incubate at room temperature for 1 hour protected from light. Read the fluorescence at 665 nm and 615 nm with Reader PerkinElmer EnVision.

[1] abbreviates: read-out: GLP1R cAMP Stimulation DR: EC50 (nM) [Species: Human, Assay Cell Line: HDB].
The mark [2] stands for this setting: read-out: GLP1R cAMP Stimulation DR: pEC50 (M) [Species: Human, Assay Cell Line: HDB] (converted).

Structures are written as SMILES. Where a name gives a salt, the structure may show the parent alone. Read-outs that look alike come from different tables or passages of the source. A value given as a limit tells only on which side of the number the result lay.

T1 sequence (P43220 24-463): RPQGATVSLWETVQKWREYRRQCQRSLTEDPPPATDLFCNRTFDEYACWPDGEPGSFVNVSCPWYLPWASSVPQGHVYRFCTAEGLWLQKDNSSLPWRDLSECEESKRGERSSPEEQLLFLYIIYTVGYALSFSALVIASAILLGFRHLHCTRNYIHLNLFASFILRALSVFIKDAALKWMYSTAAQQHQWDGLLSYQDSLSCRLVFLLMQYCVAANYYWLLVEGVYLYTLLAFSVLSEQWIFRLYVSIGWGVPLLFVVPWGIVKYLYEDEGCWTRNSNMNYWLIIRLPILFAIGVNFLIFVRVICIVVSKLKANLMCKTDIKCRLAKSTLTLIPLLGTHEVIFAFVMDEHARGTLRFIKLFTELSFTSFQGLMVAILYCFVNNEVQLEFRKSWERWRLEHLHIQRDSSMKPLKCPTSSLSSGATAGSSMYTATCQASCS

In the case of `Cc1cc(-n2nc3c(c2-n2ccn(-c4cccc(P(C)(C)=O)n4)c2=O)[C@H](C)N(C(=O)c2cc4cc(C5CCOCC5)ccc4n2[C@@]2(c4noc(=O)[nH]4)C[C@@H]2C)CC3)cc(C)c1F` [Compound 113a, 3-((1S,2S)-1-(2-((S)-3-(3-(6-(dimethylphosphoryl)pyridin-2-yl)-2-oxo-2,3-dihydro-1H-imidazol-1-yl)-2-(4-fluoro-3,5-dimethylphenyl)-4-methyl-4,5,6,7-tetrahydro-2H-pyrazolo[4,3-c]pyridine-5-carbonyl)-5-(tetrahydro-2H-pyran-4-yl)-1H-indol-1-yl)-2-methylcyclopropyl)-1,2,4-oxadiazol-5(4H)-one], the EC50 under setting [1] is 0.2 to 0.5 nM and the EC50 under setting [2] is 0.1 to 1 nM.

As to `CCP(=O)(CC)c1ccc(-n2ccn(-c3c4c(nn3-c3cc(C)c(F)c(C)c3)CCN(C(=O)c3cc5cc(C6CCOCC6)ccc5n3[C@@]3(c5noc(=O)[nH]5)C[C@@H]3C)[C@H]4C)c2=O)cc1N(C)C` [Compound 117a, 3-((1S,2S)-1-(2-((S)-3-(3-(4-(diethylphosphoryl)-3-(dimethylamino)phenyl)-2-oxo-2,3-dihydro-1H-imidazol-1-yl)-2-(4-fluoro-3,5-dimethylphenyl)-4-methyl-4,5,6,7-tetrahydro-2H-pyrazolo[4,3-c]pyridine-5-carbonyl)-5-(tetrahydro-2H-pyran-4-yl)-1H-indol-1-yl)-2-methylcyclopropyl)-1,2,4-oxadiazol-5(4H)-one HCl salt], the EC50 is 0.2 to 0.5 nM under setting [1] and 0.1 to 1 nM under setting [2].

Take `Cc1cc(-n2nc3c(c2-n2ccn(-c4ccc(P(C)(C)=O)nc4)c2=O)[C@H](C)N(C(=O)c2cc4cc(C5CCOCC5)ccc4n2[C@@]2(c4noc(=O)[nH]4)C[C@@H]2C)CC3)cc(C)c1F` [Compound 105a, 3-((1S,2S)-1-(2-((S)-3-(3-(6-(dimethylphosphoryl)pyridin-3-yl)-2-oxo-2,3-dihydro-1H-imidazol-1-yl)-2-(4-fluoro-3,5-dimethylphenyl)-4-methyl-4,5,6,7-tetrahydro-2H-pyrazolo[4,3-c]pyridine-5-carbonyl)-5-(tetrahydro-2H-pyran-4-yl)-1H-indol-1-yl)-2-methylcyclopropyl)-1,2,4-oxadiazol-5(4H)-one]: the EC50 runs as follows: under setting [1], 0.1 to 0.2 nM; under setting [2], 0.1 to 1 nM.

With `CNc1cc(-n2ccn(-c3c4c(nn3-c3cc(C)c(F)c(C)c3)CCN(C(=O)c3cc5cc(C6CCOCC6)ccc5n3[C@@]3(c5noc(=O)[nH]5)C[C@@H]3C)[C@H]4C)c2=O)ccc1P(=O)(C1CC1)C1CC1` [Compound 132a, 3-((1S,2S)-1-(2-((S)-3-(3-(4-(dicyclopropylphosphoryl)-3-(methylamino)phenyl)-2-oxo-2,3-dihydro-1H-imidazol-1-yl)-2-(4-fluoro-3,5-dimethylphenyl)-4-methyl-4,5,6,7-tetrahydro-2H-pyrazolo[4,3-c]pyridine-5-carbonyl)-5-(tetrahydro-2H-pyran-4-yl)-1H-indol-1-yl)-2-methylcyclopropyl)-1,2,4-oxadiazol-5(4H)-one], the EC50 under setting [1] was 0.1 to 0.2 nM and the EC50 under setting [2] was 0.1 to 1 nM.

In the case of `CCP(=O)(CC)c1ccc(-n2ccn(-c3c4c(nn3-c3cc(C)c(F)c(C)c3)CCN(C(=O)c3cc5cc(C6CCOCC6)ccc5n3[C@@]3(c5noc(=O)[nH]5)C[C@@H]3C)[C@H]4C)c2=O)cc1N1CCOCC1` [Compound 114a, 3-((1S,2S)-1-(2-((S)-3-(3-(4-(diethylphosphoryl)-3-morpholinophenyl)-2-oxo-2,3-dihydro-1H-imidazol-1-yl)-2-(4-fluoro-3,5-dimethylphenyl)-4-methyl-4,5,6,7-tetrahydro-2H-pyrazolo[4,3-c]pyridine-5-carbonyl)-5-(tetrahydro-2H-pyran-4-yl)-1H-indol-1-yl)-2-methylcyclopropyl)-1,2,4-oxadiazol-5(4H)-one], the EC50 runs as follows: under setting [1], 0.2 to 0.5 nM; under setting [2], 0.1 to 1 nM.

For `CCP(=O)(CC)c1ccc(-n2ccn(-c3c4c(nn3-c3cc(C)c(F)c(C)c3)CCN(C(=O)c3cc5cc([C@H]6CCOC(C)(C)C6)ccc5n3[C@@]3(c5noc(=O)[nH]5)C[C@@H]3C)[C@H]4C)c2=O)cc1NC` [Compound 146b, 3-((1S,2S)-1-(2-((S)-3-(3-(4-(diethylphosphoryl)-3-(methylamino)phenyl)-2-oxo-2,3-dihydro-1H-imidazol-1-yl)-2-(4-fluoro-3,5-dimethylphenyl)-4-methyl-4,5,6,7-tetrahydro-2H-pyrazolo[4,3-c]pyridine-5-carbonyl)-5-((S)-2,2-dimethyltetrahydro-2H-pyran-4-yl)-1H-indol-1-yl)-2-methylcyclopropyl)-1,2,4-oxadiazol-5(4H)-one], the EC50 under setting [1] was under 0.1 nM and the EC50 under setting [2] was at most 0.1 nM.

Consider `CCP(=O)(CC)c1ccc(-n2ccn(-c3c4c(nn3-c3cc(C)c(F)c(C)c3)CCN(C(=O)c3cc5cc(C6CCOCC6)ccc5n3[C@@]3(c5noc(=O)[nH]5)C[C@@H]3C)[C@H]4C)c2=O)cc1N` [Compound 138a, 3-((1S,2S)-1-(2-((S)-3-(3-(3-amino-4-(diethylphosphoryl)phenyl)-2-oxo-2,3-dihydro-1H-imidazol-1-yl)-2-(4-fluoro-3,5-dimethylphenyl)-4-methyl-4,5,6,7-tetrahydro-2H-pyrazolo[4,3-c]pyridine-5-carbonyl)-5-(tetrahydro-2H-pyran-4-yl)-1H-indol-1-yl)-2-methylcyclopropyl)-1,2,4-oxadiazol-5(4H)-one], for which the EC50 reads like this: under setting [1], under 0.1 nM; under setting [2], at most 0.1 nM.

With `Cc1cc(-n2nc3c(c2-n2ccn(-c4ccc(P(C)(C)=O)c(N)c4)c2=O)[C@H](C)N(C(=O)c2cc4cc(C5CCOCC5)ccc4n2[C@@]2(c4noc(=O)[nH]4)C[C@@H]2C)CC3)cc(C)c1F` [Compound 111a, 3-((1S,2S)-1-(2-((S)-3-(3-(3-amino-4-(dimethylphosphoryl)phenyl)-2-oxo-2,3-dihydro-1H-imidazol-1-yl)-2-(4-fluoro-3,5-dimethylphenyl)-4-methyl-4,5,6,7-tetrahydro-2H-pyrazolo[4,3-c]pyridine-5-carbonyl)-5-(tetrahydro-2H-pyran-4-yl)-1H-indol-1-yl)-2-methylcyclopropyl)-1,2,4-oxadiazol-5(4H)-one], the EC50 under setting [1] is under 0.1 nM and the EC50 under setting [2] is at most 0.1 nM.

`Cc1cc(-n2nc3c(c2-n2ccn(Cc4cccc(P(C)(C)=O)c4)c2=O)[C@H](C)N(C(=O)c2cc4cc(C5CCOCC5)ccc4n2[C@@]2(c4noc(=O)[nH]4)C[C@@H]2C)CC3)cc(C)c1F` [Compound 147a, 3-((1S,2S)-1-(2-((S)-3-(3-(3-(dimethylphosphoryl)benzyl)-2-oxo-2,3-dihydro-1H-imidazol-1-yl)-2-(4-fluoro-3,5-dimethylphenyl)-4-methyl-4,5,6,7-tetrahydro-2H-pyrazolo[4,3-c]pyridine-5-carbonyl)-5-(tetrahydro-2H-pyran-4-yl)-1H-indol-1-yl)-2-methylcyclopropyl)-1,2,4-oxadiazol-5(4H)-one]: the EC50 under setting [1] lay within 0.5 to 5 nM and the EC50 under setting [2] was 1 to 10 nM.
